In patent US6967205B1, “Compounds with antibacterial and antiparasitic properties” (New Pharma Research Sweden AB, priority 1999, dated 2005):
Converted amounts (≈) assume the structure as drawn.

Legend:
[1] = system: Staph. epidermidis (ATCC 12228); assay: M.I.C. by broth dilution method (NCCLS 1988), gram-positive bacteria; type: cell-based; conditions: Staphylococcus epidermidis, ATCC12228, in vitro broth dilution
Method in brief: (§1)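 MIC values were obtained by broth dilution following NCCLS 1988 against gram-positive strains including Bacillus subtilus ATCC 6633, Streptococcus faecium and Staphylococcus ATCC 6538. Enrofloxacin served as reference. Compound stocks were 1 000 μg/ml in aqueous KOH or KOH/DMF.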

Bacillus cereus = assay: as above; type: cell-based; conditions: in vitro broth dilution
Method in brief: as §1

[2] = system: Staph. aureus (ATCC 29737); assay: as above; type: cell-based; conditions: Staphylococcus aureus, ATCC29737, in vitro broth dilution
Method in brief: as §1

[3] = system: Bacillus subtilus (ATCC 6633); assay: as above; type: cell-based; conditions: ATCC6633, in vitro broth dilution
Method in brief: as §1

[4] = system: Staphylococcus (ATCC 6538); assay: as above; type: cell-based; conditions: ATCC6538, in vitro broth dilution, read-out: M.I.C. values Staph. (ATCC 6538)
Method in brief: as §1

[5] = system: Micrococcus Luteus (ATCC 9341); assay: as above; type: cell-based; conditions: ATCC9341, in vitro broth dilution, read-out: M.I.C. values Microc. Luteus
Method in brief: as §1

Streptococcus faecium = assay: as above; type: cell-based; conditions: Enterococcus faecium, in vitro broth dilution, read-out: M.I.C. values Streptoc. faecium
Method in brief: as §1

M. gallisepticum = assay: M.I.C. against Mycoplasma in microtitre plates (Tanner and Wu); type: cell-based; conditions: Mycoplasmoides gallisepticum; in vitro, microtitre plates
Method: The M.I.C. values of the compounds JA 1, JA 3, JA 5, JA 12, JA 42 and JA 43 were determined in vitro against M. gallisepticum. Enrofloxacin, tylosin and oxytetracyclin were used as reference compounds. The tested compounds were all stored and applied as solutions in distilled water. The M.I.C. evaluation was performed in microtitre plates, and the methodology employed was basically that of Tanner and Wu (Avian Disease, 36:714-717 (1992)).

[6] = system: E. mitis, E. hagani, E. praecox, E. acervulina, E. maxima, E. necatrix, E. tenella and E. brunetti; assay: Prophylactic anticoccidial effect in chickens of Arbor Aker breed (8 Eimeria strains); type: in vivo; conditions: 100 ppm in feed from day 3, infected day 7
Method: JA 12, JA 39 and JA 42 was also evaluated in chickens of Arbor Aker breed. These trials were conducted by using basically the same test protocol as that used for the chickens of Habbared X breed, albeit with the following modifications:
• i) On day 3 after hatch, the tested groups of chickens received feed containing 100 ppm of JA 12, JA 39, JA 42 or Coxistac (60 ppm); • ii) On day 7 after hatch, the chickens were infected orally by oocysts containing a mixture of 8 mature sporulated strains, namely E. mitis, E. hagani, E. praecox, E. acervulina, E. maxima, E. necatrix, E. tenella and E. brunetti.

[7] = system: gram-negative bacteria (E. coli, KL. Pnemonia, Bordetella bronchiseptic, Salmonella typhi, Salmonella spp., Proteus spp., Pasterulla Duck, Pasterulla Camel); assay: M.I.C. by broth dilution method, gram-negative bacteria; type: cell-based; conditions: eleven gram-negative strains
Method: The antibacterial activity of the present compounds was investigated by in vitro evaluation of their M.I.C. (Minimum Inhibitory Concentration) values. The evaluation was conducted in complete accordance with the “Broth dilution method”, as outlined by the U.S. National Committee for Clinical Laboratory Standards “NCCLS 1988”.
Solutions of the present compounds were prepared by dissolving 0.01 g of a test compound in either 10% KOH (aq) or a 10% KOH/DMF mixture, after which sterile, distilled H2O was added up to a total volume of 10 ml, thereby yielding a test compound concentration of 1 000 μg/ml.
In the same manner as above, the M.I.C. values of the present compounds JA 3, JA 5, JA 12, JA 42, JA 73 and enrofloxacin as reference compound were investigated also on gram-negative bacteria. The gram-negative bacteria used were E. coli (ATCC 25922), E. Coli (ATCC 8739), E. Coli (ATCC 10536), E. Coli Pathogenic, KL. Pnemonia (ATCC 10031), Bordetella bronchiseptic (ATCC 4617), Salmonella typhi, Salmonella spp., Proteus spp., Pasterulla Duck and Pasterulla Camel.

[8] = system: Eimeria acervulina, E. maxima, E. necatrix, E. tenella and E. brunetti; assay: Prophylactic anticoccidial activity in chickens of Habbared X breed (5 Eimeria strains); type: in vivo
Method: The anticoccidial activity of the present compounds as prophylactic agents was evaluated in vivo on […] one day old (1 day after hatch) chickens of Habbared X breed. The chickens were divided into four groups of 20 birds each, and each group was located in a separate pen (1 m×1 m). The chickens were then fed with unmedicated food up to day 7 after hatch. Fresh water was supplied ad libitum .
On day 8 after hatch, the four groups were fed as follows (1 ppm=1 mg drug/kg feed): • Group #1: feed containing JA 39 (100 ppm); • Group #2: feed containing JA 42 (100 ppm); • Group #3: feed containing Coxistac (60 ppm), a known anticoccidial agent (see U.S. Pat. No. 3,857,948);
Group #4: feed containing no drug (control group).
The chickens were fed as above on day 8 and 9 after hatch. On day 10 after hatch, each chicken was infected orally by 6 000-7 000 oocysts containing a mixture of 5 mature sporulated strains, namely Eimeria acervulina, E. maxima, E. necatrix, E. tenella and E. brunetti. The groups #1-3 received drug as above from day 10 to 21 after hatch.
From day 14 to 21 after hatch, fresh fecal droplets were collected and examined daily. The average number of oocysts/g faeces was then calculated in accordance with the so-called Mc-Master technique (Soulsby, E. J., Helminths, Arthropods & Protozoa of domesticated animals, p. 789, 6th Ed., Williams & Wilkins Co. Baltimore (USA), Tindall & Cassell Ltd., London, 1968). The final weight of and mean total amount of feed consumed by each bird were also examined, and the results are summarized in Table 8 hereinbelow.

[9] = system: E. mitis, E. hagani, E. praecox, E. acervulina, E. maxima, E. necatrix, E. tenella and E. brunetti; assay: Prophylactic anticoccidial effect, additional trials in chickens of Habbared X breed (8 Eimeria strains); type: in vivo; conditions: B700 100 ppm
Method: In yet another evaluation of the prophylactic anticoccidial effect of the present compounds, additional trials on chickens of Habbared X breed were performed. The same test protocol as the one previously employed for this breed of chickens was used, albeit with the following following modifications: • i) On day 8 after hatch, the chickens received feed containing B700 (100 ppm), JA 3 (200 ppm) or Coxistac (100 ppm); • ii) On day 11 after hatch, the chickens were infected orally by oocysts containing a mixture of 8 mature sporulated strains, namely E. mitis, E. hagani, E. praecox, E. acervulina, E. maxima, E. necatrix, E. tenella and E. brunetti. The results of this evaluation were slightly unexpected.

SMILES | MIC [1] | MIC (Bacillus cereus) | MIC [2] | MIC [3] | MIC [4] | MIC [5] | MIC (Streptococcus faecium) | MIC (M. gallisepticum) | prophylactic anticoccidial effect (in words) [6] | antibacterial activity against gram-negative bacteria compared to that of enrofloxacin [7] | other results
O=C(O)c1cn(C2CC2)c2cc(N3CCN(c4cccc(Cl)n4)CC3)c(F)cc2c1=O [JA 42, 7-[4-(6-chloro-2-pyridinyl)-1-piperazinyl]-1-cyclopropyl-6-fluoro-4-oxo-1,4-dihydro-3-quinolinecarboxylic acid] | 0.008 µg/mL (≈ 0.0181 µM) | 0.06 µg/mL (≈ 0.135 µM) | 0.03 µg/mL (≈ 0.0677 µM) | 0.01 µg/mL (≈ 0.0226 µM) | 0.06 µg/mL (≈ 0.135 µM) | 1 µg/mL (≈ 2.26 µM) | 0.25 µg/mL (≈ 0.564 µM) | 0.25 µg/mL (≈ 0.564 µM) | essentially the same as those reported for the trials with the chickens of Habbared X breed | roughly equal to that of enrofloxacin | anticoccidial effect (in words) ([8]; chickens of Habbared X breed, 100 ppm in feed): excellent anticoccidial effect; Average number of Eimeria spp. oocysts/g faeces, day after hatch 14 ([8]; day 14 after hatch, drug in feed (JA 39, JA 42 100 ppm; Coxistac 60 ppm), infected day 10): 0.0 oocysts/g faeces; Average number of Eimeria spp. oocysts/g faeces, day after hatch 15 ([8]; day 15 after hatch, drug in feed (JA 39, JA 42 100 ppm; Coxistac 60 ppm), infected day 10): 4000 oocysts/g faeces; Average number of Eimeria spp. oocysts/g faeces, day after hatch 16 ([8]; day 16 after hatch, drug in feed (JA 39, JA 42 100 ppm; Coxistac 60 ppm), infected day 10): 6000 oocysts/g faeces; Average number of Eimeria spp. oocysts/g faeces, day after hatch 17 ([8]; day 17 after hatch, drug in feed (JA 39, JA 42 100 ppm; Coxistac 60 ppm), infected day 10): 3000 oocysts/g faeces; Average number of Eimeria spp. oocysts/g faeces, day after hatch 18 ([8]; day 18 after hatch, drug in feed (JA 39, JA 42 100 ppm; Coxistac 60 ppm), infected day 10): 0.0 oocysts/g faeces; Average number of Eimeria spp. oocysts/g faeces, day after hatch 19 ([8]; day 19 after hatch, drug in feed (JA 39, JA 42 100 ppm; Coxistac 60 ppm), infected day 10): 0.0 oocysts/g faeces; Average number of Eimeria spp. oocysts/g faeces, day after hatch 21 ([8]; day 21 after hatch, drug in feed (JA 39, JA 42 100 ppm; Coxistac 60 ppm), infected day 10): 0.0 oocysts/g faeces; Mean body weight ([8]; final weight, infected chickens, drug in feed (JA 39, JA 42 100 ppm; Coxistac 60 ppm)): 73.7 g; Mean amount of feed consumed ([8]; mean total feed per bird, infected chickens, drug in feed (JA 39, JA 42 100 ppm; Coxistac 60 ppm)): 91 g; Average number of Eimeria spp. oocysts/g faeces, Total ([8]; total of days 14-21 after hatch, drug in feed (JA 39, JA 42 100 ppm; Coxistac 60 ppm)): 13000 oocysts/g faeces
O=C(O)c1cn(C2CC2)c2cc(N3CCN(S(=O)(=O)c4ccc([N+](=O)[O-])cc4)CC3)c(F)cc2c1=O [JA 3, 1-cyclopropyl-6-fluoro-7-{4-[(4-nitrophenyl)sulfonyl]-1-piperazinyl}-4-oxo-1,4-dihydro-3-quinolinecarboxylic acid] | 0.01 µg/mL (≈ 0.0194 µM) | 0.06 µg/mL (≈ 0.116 µM) | 0.06 µg/mL (≈ 0.116 µM) | 0.06 µg/mL (≈ 0.116 µM) | 0.06 µg/mL (≈ 0.116 µM) | 1 µg/mL (≈ 1.94 µM) | 0.25 µg/mL (≈ 0.484 µM) | 0.06 µg/mL (≈ 0.116 µM) | – | roughly equal to that of enrofloxacin | anticoccidial activity (in words) ([9]; JA 3 200 ppm in feed from day 8, infected day 11): significant anticoccidial activity; increased body weight gain as compared to the Coxistac treated group ([9]; JA 3 200 ppm, Coxistac 100 ppm): approximately 10%; total number of oocysts during the treatment compared to Coxistac group ([9]; JA 3 200 ppm, Coxistac 100 ppm): higher than for the group treated with Coxistac
O=C(O)c1cn(C2CC2)c2cc(NCC3CCCO3)c(F)cc2c1=O (stereo not drawn) [JA 73, 1-cyclopropyl-6-fluoro-4-oxo-7-[(tetrahydro-2-furanylmethyl)amino]-1,4-dihydro-3-quinolinecarboxylic acid] | 0.12 µg/mL (≈ 0.346 µM) | 0.06 µg/mL (≈ 0.173 µM) | 0.12 µg/mL (≈ 0.346 µM) | 0.12 µg/mL (≈ 0.346 µM) | 0.06 µg/mL (≈ 0.173 µM) | 2 µg/mL (≈ 5.77 µM) | 0.5 µg/mL (≈ 1.44 µM) | – | – | roughly equal to that of enrofloxacin | –
O=C(O)c1cn(C2CC2)c2cc(N3CCN(S(=O)(=O)C(F)(F)F)CC3)c(F)cc2c1=O [JA 12, 1-cyclopropyl-6-fluoro-4-oxo-7-{4-[(trifluoromethyl)sulfonyl]-1-piperazinyl}-1,4-dihydro-3-quinolinecarboxylic acid] | 0.12 µg/mL (≈ 0.259 µM) | 0.06 µg/mL (≈ 0.129 µM) | 0.12 µg/mL (≈ 0.259 µM) | 0.12 µg/mL (≈ 0.259 µM) | 0.03 µg/mL (≈ 0.0647 µM) | 0.5 µg/mL (≈ 1.08 µM) | 1 µg/mL (≈ 2.16 µM) | 0.12 µg/mL (≈ 0.259 µM) | very similar to that of JA 39 | roughly equal to that of enrofloxacin | –
O=C(O)c1cn(C2CC2)c2cc(N3CCN(S(=O)(=O)c4ccc5ccccc5c4)CC3)c(F)cc2c1=O [JA 5, 1-cyclopropyl-6-fluoro-7-[4-(2-naphthylsulfonyl)-1-piperazinyl]-4-oxo-1,4-dihydro-3-quinolinecarboxylic acid] | 0.01 µg/mL (≈ 0.0192 µM) | 0.03 µg/mL (≈ 0.0575 µM) | 0.06 µg/mL (≈ 0.115 µM) | 0.008 µg/mL (≈ 0.0153 µM) | 0.06 µg/mL (≈ 0.115 µM) | 0.5 µg/mL (≈ 0.959 µM) | 0.12 µg/mL (≈ 0.23 µM) | 0.12 µg/mL (≈ 0.23 µM) | – | roughly equal to that of enrofloxacin | –
